Reference: patent US20230331817A1 (The Regents of the University of California, priority 2020, published 2023)
Read-outs that look alike come from different tables or passages of the source.

Key:
[1] = system: primary human dermal skin fibroblasts; test: Resazurin reduction (alamarBlue) viability assay, skin fibroblasts; type: cell-based
Method: (§1) Resazurin reduction assay (Fisher Scientific) was used to evaluate the potential cytotoxicity of antifibrinolytic agents toward primary human endothelial cells and skin fibroblasts. Phosphate buffer that was used to dissolve the samples was included as negative control. The assay is based on reduction of the non-fluorescent dye resazurin, to the highly fluorescent resorufin by viable cells. […] Briefly, cells in 96-well cell culture plates were treated with different concentrations of antifibrinolytic compounds (as described above). After 24 hours resazurin reagent was added to each well and the plates were incubated at 37° C. for 4 hours. Fluorescence was measured by the FLUOstar Omega Microplate Reader (BMG Labtech) using an excitation wavelength of 544 nm and an emission wavelength of 590 nm. Each assay was done in duplicate, with three replicates each. The viability was evaluated based on comparison with untreated cells.

[2] = rats and dogs; cited from earlier work
[3] = humans; cited from earlier work
[4] = system: primary human dermal skin fibroblasts; test: Caspase 3/7 assay, skin fibroblasts; type: cell-based; settings: 24 hours; 30 μM KD1TM, 30 μM BPTI, 60 mM EACA, 30 mM TXA
Method: The influence of antifibrinolytic agents on apoptosis in cells was detected using the Caspase-Glo 3/7 Assay kit (Promega). Caspase 3 and 7 are activated in cells that undergo apoptosis. The assay provides a luminogenic substrate for caspase 3 and 7. Enzymatic activity leads to luminescence, which is proportional to the amount of caspase activity present. Cells were seeded in 96-well plates and treated with antifibrinolytic agents or phosphate buffer (solvent control). Taxol was included as positive control. After 24 hours of treatment, caspase reagent was added to each well, mixed and incubated for 1 hour at room temperature. Luminescence was measured using the FLUOstar Omega Microplate Reader (BMG Labtech).

HUVEC = type: cell-based, human
Method: as §1

[5] = system: tPA-induced plasma clot fibrinolysis; test: Fibrinolysis (clot lysis) assay in normal pooled plasma; type: biochemical; settings: human NPP
Method: The method of Sperzel and Huetter (40) was followed with minor modifications as outlined earlier (32,41). Briefly, IIa was used to initiate fibrin formation in NPP and the lysis of the formed clot (fibrinolysis) was induced by simultaneous addition of tPA. Clot formation and lysis were monitored with a Molecular Devices microplate reader (SPECTRAmax 190) measuring the optical density at 405 nm. […] Two hundred twenty-five μL of this mixture was then added to 25 μL IIa and tPA in TBS/BSA containing 25 mM CaCl2). In the 250 μL final volume, concentration of IIa was 0.15 μg/ml and that of tPA was 1 μg/ml. Under control conditions (zero tPA and zero test compound), OD405 increased immediately indicating clotting followed by an extremely slow decrease representing fibrinolysis. As clotting was almost complete after 5 minutes, fibrinolysis induced by tPA was evaluated as a relative decrease of OD405 up to 60 minutes.
Addition of thrombin (IIa) to human normal pooled plasma (NPP) caused fibrin formation, which is reflected by the increase in OD405 (black curve, FIGS. 3A and 3B). Simultaneous addition of tPA caused initial clot formation followed by dissolution of fibrin induced by tPA-mediated conversion of plasminogen to plasmin (black curve with closed circles, FIGS. 3A and 3B); the midpoint of fibrinolysis was ˜8 min in each case. Both antifibrinolytic agents inhibited fibrinolysis in a dose-dependent manner.

DIP-δplasmin = test: Surface plasmon resonance binding to DIP-δplasmin
Method: Active-site blocked δplasmin was generated by treating δplasmin with equal volumes of 1 M Tris-HCl, pH 8.0 and 1 M DFP (final concentration of 1 mM DFP) at room temperature for 20 minutes, followed by an incubation on ice for several hours. Additional equal volumes of 1M Tris-HCl, pH 8.0 and 1M DFP (final concentration of 2 mM) were added and the reaction was incubated at room temperature for 20 minutes and then over night at 4° C. The DFP inhibited Splamsin (DIP-δplasmin) was dialyzed against 20 mM HEPES pH 7.5, containing 150 mM NaCl and assayed for residual activity using S-2251 synthetic substrate hydrolysis. Based upon the residual activity, >99% of the δplasmin was inactivated.
(§2) Binding studies were performed on a Biacore T100 flow biosensor (Biacore, Uppsala, Sweden) at 25° C. DIP-δplasmin (˜98% purity using SDS-PAGE) or tPA (>98% purity using SDS-PAGE) was immobilized on carboxymethyl-dextran flow cell (CM5 sensor chips, GE Healthcare) using amine-coupling chemistry. Flow cell surfaces were activated with a mixture of 1-ethyl-3-(3-dimethylaminopropyl) carbodiimide and N-hydroxysulfosuccinimide for 5 min (flow rate 10 μl/min), after which the protein (20 μg/ml in 10 mM sodium acetate, pH 5.5) was injected onto the surface. Unreacted sites were blocked for 5 minutes with 1 M ethanolamine. The analyte KD1-Y11T/L17R-KT (100 to 2000 nM) was perfused through flow cells in HBS-P buffer (20 mM HEPES, pH 7.4, 100 mM NaCl, 0.005% (v/v) P20) at 10 μl/minutes for 6 minutes. After changing to HBS-P buffer without the protein, analyte dissociation was monitored for 10 min. Flow cells were regenerated with HBS-P containing 20 mM EACA. Data were corrected for nonspecific binding by subtracting signals obtained with the analyte infused through a flow cell without the coupled protein. Binding was analyzed with BIAevaluation software (Biacore) using a 1:1 binding model. Kd values were calculated from the quotient of the derived dissociation (kd) and association (ka) rate constants.

[6] = system: tPA-induced lysis of clot formed in whole blood; test: Thromboelastography, tPA-induced clot lysis in whole blood; type: biochemical
Method: The effect of different concentrations of KD1-Y11T/R15K/L17R-KCOOH (KD1TM) on fibrinolysis was evaluated with thromboelastography (TEG) using a TEG 5000 Thrombelastograph (Haemonetics Corp, Braintree, MA, USA). Each clot formation/lysis assay contained 300 μL of citrated whole blood, thrombin (0.15 μM, final concentration), tPA (2 nM, final concentration), CaCl2) (10 mM, final concentration) and various concentrations of KD1TM in TBS/BSA (50 mM Tris-HCl, 100 mM NaCl, containing 0.1 mg bovine serum albumin/mL) to make the final volume to 360 μL. Thrombin, tPA and CaCl2) were added last to initiate simultaneous clotting and fibrinolysis. […] Each experiment was performed at least 60 min after the maximal amplitude was reached to establish the LY60 value. TEG Analytical Software (version 4.2.3; Haemonetics Corporation, Braintree, MA, USA) was used to calculate the time to clot initiation (R), maximal clot strength (maximal amplitude (MA), which was directly related to the shear elastic modulus strength, G), and percent lysis 60 min after MA (LY60).

human plasmin = target: T1, human plasmin (Homo sapiens, UniProt P00747); test: Stability study: plasmin inhibition after storage; type: biochemical; settings: 0.59 mg/ml kept at 4° C., room temperature and 37° C. for a week
T1 construct: purchased Hematologic Technologies Inc (Essex Junction, VT)
Method: In stability studies, the KD1Y11T/R15K/L17R-KT sample (0.59 mg/ml) was kept at 4° C., at room temperature and at 37° C. for a week and its plasmin inhibition was studied each day. […] Reactions were carried out in TBS/BSA and 2 mM calcium. Human plasmin was incubated with various concentrations of rHuKD1-TM for 1 hour at room temperature in a 96-well microtiter plate. Synthetic substrate for plasmin was then added to a final concentration of 1 KM, and residual amidolytic activity was measured in a kinetic microplate reader (Molecular Devices). In Table 7 below, the apparent inhibition constant, Ki* was determined using the nonlinear regression data analysis program. Data are analyzed using an equation for a tight-binding inhibitor and Ki values are obtained by correcting for the effect of substrate concentration.

Plasma kallikrein (pKLK) = target: T2, Plasma kallikrein (pKLK) (Homo sapiens, UniProt P03952); test: Protease inhibition assay, plasma kallikrein; type: biochemical
T2 construct: Plasma kallikrein (pKLK) was from Enzyme Research Laboratories; purchased Enzyme Research Laboratories (South Bend, IN)
Method: (§3) All reactions were carried out in TBS, pH 7.5 (50 mM Tris-HCL, pH 7.5, containing 100 mM NaCl), containing 0.1 mg bovine serum albumin/ml (TBS/BSA) and 2 mM Ca2+(TBS/BSA/Ca2+, pH 7.5). […] The inhibition constant, K* was determined using the nonlinear regression data analysis program Grafit.
(§4) Ki values were obtained by correcting for the effect of substrate according to Beith (38), using equation 2, where (S) is substrate concentration and KM is specific for each enzyme.

mouse injury models = settings: liver laceration model and tail amputation model; cited from earlier work
FVIIa/sTF = target: T3, FVIIa/sTF (Homo sapiens, UniProt P08709); test: Protease inhibition assay, FVIIa/soluble tissue factor; type: biochemical; settings: up to 3 μM inhibitor; 20 nM FVIIa/sTF; triplicate
T3 construct: human factor VIIa (FVIIa) was prepared as described previously (34)
Method: as §3, §4

tPA = target: T4, tPA (Homo sapiens, UniProt P00750); test: Surface plasmon resonance binding to tPA; settings: 25° C; 1:1 binding model
T4 construct: purchased Genentech (South San Francisco, CA)
Method: as §2

human FXIa = target: T5, human FXIa (Homo sapiens, UniProt P03951); test: Protease inhibition assay, factor XIa; type: biochemical; settings: up to 3 μM inhibitor; 1 nM FXIa; triplicate
T5 construct: Purified human FXIa, thrombin (IIa) and plasmin were purchased; purchased Hematologic Technologies Inc (Essex Junction, VT)
Method: as §3, §4

[7] = system: plasmin induced lysis of clot formed in whole blood; test: Thromboelastography, plasmin induced clot lysis in whole blood; type: biochemical, human
Method: Plasmin and CaCl2) were added last to initiate simultaneous clotting and fibrinolysis. […] The thromboelastograph was calibrated each day and each inhibitor concentration was tested in duplicate. TEG Analytical Software (version 4.2.2; Haemonetics Corporation, Braintree, MA) was used to calculate the time to clot initiation (R), maximal clot strength (maximal amplitude (MA), which was directly related to the shear elastic modulus strength, G), and percent lysis 60 minutes after MA (LY60) (42).

[8] = NHB + […] plasmin, inhibitor 5 μM

T4 sequence (P00750 36-562): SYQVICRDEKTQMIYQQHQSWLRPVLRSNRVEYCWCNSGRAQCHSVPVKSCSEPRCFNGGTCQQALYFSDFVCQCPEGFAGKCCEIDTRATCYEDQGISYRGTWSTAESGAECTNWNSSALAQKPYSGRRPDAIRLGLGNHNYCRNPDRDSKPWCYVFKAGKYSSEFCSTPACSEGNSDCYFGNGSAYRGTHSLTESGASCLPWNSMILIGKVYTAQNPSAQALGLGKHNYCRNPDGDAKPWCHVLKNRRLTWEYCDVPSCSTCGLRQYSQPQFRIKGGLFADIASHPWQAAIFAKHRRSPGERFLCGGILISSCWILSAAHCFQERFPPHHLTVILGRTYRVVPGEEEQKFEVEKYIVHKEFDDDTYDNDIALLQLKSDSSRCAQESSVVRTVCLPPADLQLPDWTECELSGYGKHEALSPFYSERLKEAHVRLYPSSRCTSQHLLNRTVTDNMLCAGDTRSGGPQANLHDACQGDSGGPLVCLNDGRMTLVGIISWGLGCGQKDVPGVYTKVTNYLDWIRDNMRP
T2 sequence (P03952 20-390 limits assumed): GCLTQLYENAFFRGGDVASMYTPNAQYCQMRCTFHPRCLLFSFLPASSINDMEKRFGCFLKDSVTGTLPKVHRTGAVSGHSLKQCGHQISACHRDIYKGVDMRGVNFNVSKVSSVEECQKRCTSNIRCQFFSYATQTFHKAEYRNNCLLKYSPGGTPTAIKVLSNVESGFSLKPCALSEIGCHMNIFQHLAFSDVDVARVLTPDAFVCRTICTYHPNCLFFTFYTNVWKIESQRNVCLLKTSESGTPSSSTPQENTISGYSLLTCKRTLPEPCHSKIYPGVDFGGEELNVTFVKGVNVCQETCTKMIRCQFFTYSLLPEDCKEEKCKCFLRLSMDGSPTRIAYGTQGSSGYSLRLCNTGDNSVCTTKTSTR
T2 sequence (P03952 391-638 limits assumed): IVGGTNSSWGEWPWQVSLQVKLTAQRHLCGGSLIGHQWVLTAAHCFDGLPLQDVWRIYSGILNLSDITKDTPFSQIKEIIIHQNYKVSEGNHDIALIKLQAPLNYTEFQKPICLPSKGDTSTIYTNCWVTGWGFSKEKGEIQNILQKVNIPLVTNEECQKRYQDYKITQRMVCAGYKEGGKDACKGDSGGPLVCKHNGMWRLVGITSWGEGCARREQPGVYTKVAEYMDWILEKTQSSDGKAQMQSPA
T5 sequence (P03951 19-387 limits assumed): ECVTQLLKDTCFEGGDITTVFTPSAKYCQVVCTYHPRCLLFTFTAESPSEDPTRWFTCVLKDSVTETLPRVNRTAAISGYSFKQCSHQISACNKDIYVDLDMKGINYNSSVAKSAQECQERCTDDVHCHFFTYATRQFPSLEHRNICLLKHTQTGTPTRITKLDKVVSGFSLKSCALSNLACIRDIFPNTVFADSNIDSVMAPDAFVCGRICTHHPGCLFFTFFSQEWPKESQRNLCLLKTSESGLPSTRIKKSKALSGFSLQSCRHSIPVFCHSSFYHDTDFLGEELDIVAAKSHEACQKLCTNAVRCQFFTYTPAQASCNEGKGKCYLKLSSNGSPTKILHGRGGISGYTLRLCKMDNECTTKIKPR
T5 sequence (P03951 388-625 limits assumed): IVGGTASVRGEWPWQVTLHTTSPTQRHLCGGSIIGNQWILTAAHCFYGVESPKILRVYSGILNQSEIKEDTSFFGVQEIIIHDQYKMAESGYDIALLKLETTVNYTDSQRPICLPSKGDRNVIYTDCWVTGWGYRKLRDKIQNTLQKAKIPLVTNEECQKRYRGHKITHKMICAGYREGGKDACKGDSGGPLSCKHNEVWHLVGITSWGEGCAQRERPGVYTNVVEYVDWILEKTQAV
T1 sequence (P00747 97-580 limits assumed): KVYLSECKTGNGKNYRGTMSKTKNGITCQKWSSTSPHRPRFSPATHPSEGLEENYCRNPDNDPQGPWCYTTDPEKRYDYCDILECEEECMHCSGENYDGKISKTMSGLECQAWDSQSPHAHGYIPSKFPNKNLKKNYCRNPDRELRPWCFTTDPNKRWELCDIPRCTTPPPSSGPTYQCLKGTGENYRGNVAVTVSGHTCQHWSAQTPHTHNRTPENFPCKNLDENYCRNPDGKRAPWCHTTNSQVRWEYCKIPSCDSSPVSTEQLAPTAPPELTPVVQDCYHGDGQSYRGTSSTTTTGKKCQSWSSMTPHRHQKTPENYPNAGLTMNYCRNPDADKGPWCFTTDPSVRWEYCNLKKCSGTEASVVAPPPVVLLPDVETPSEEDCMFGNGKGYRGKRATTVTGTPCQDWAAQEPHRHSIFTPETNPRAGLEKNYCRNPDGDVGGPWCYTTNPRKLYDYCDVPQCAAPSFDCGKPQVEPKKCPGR
T1 sequence (P00747 581-810 limits assumed): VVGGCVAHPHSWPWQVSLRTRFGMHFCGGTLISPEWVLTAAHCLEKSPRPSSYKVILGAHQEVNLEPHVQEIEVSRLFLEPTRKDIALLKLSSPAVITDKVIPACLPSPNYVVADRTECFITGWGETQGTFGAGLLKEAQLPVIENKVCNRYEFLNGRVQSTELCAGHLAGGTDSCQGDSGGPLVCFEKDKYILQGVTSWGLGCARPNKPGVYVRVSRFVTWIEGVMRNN
T3 sequence (P08709 213-466 limits assumed): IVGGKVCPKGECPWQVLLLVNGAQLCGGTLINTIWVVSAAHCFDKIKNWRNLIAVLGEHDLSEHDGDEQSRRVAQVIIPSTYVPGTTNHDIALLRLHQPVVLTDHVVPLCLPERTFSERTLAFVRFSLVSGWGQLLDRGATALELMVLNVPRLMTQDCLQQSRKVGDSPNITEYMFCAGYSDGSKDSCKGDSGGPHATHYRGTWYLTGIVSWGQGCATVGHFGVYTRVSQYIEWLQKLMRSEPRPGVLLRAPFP
T3 sequence (P08709 61-212 limits assumed): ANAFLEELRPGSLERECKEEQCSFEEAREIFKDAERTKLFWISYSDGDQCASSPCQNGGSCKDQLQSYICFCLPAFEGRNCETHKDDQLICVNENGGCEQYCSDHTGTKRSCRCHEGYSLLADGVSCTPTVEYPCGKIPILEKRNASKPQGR
T3 sequence (P13726 33-251 partner limits assumed): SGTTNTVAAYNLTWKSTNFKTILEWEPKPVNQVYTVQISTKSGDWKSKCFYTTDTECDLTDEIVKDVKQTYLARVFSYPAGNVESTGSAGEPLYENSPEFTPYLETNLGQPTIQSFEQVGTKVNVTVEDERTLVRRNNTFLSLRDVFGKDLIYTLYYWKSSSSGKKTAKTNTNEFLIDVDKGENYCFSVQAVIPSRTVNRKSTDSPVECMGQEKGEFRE

NC[C@H]1CC[C@H](C(=O)O)CC1 [TXA, tranexamic acid]
Cell viability, primary human skin fibroblasts (Example 1) ([1]; 24 hours, KD1-Y11T/L17R-KT and aprotinin 0.1 μM-30 μM, EACA 1-60 mM, TXA 0.2-30 mM): equally unchanged
Fibroblast cell viability (FIG. 5) ([1]; 24 hours, indicated concentrations, p>0.05): not significantly different from the untreated cells
plasma half-life [2]: ~2 h
half-life [3]: ~2 h
Apoptosis, caspase-3/7 activity, skin fibroblasts (FIG. 6) [4]: not in fibroblasts
HUVEC viability (FIG. 4) (HUVEC): not significantly different from the untreated cells

KD1Y11T/R15K/L17R-KT: 60-residue triple mutant of Kunitz domain1 of human TFPI-2, SEQ ID NO: 1, C-terminal IEK, expressed in Pichia (NAEICLLPLDTGPCKARLLRYYYDRYTQSCRQFLYGGCEGNANNFYTWEACDDACWRIEK)
Fibroblast cell viability (FIG. 5) [1]: not significantly different from the untreated cells
Fibrinolysis midpoint (Example 2) ([5]; 0.5 μM inhibitor + tPA, ˜8 min without inhibitor): ~15 min
Effect on tPA induced fibrinolysis (Example 2) ([5]; 3 μM inhibitor + tPA): completely prevented tPA induced fibrinolysis
Effect on clot formation or fibrinolysis in the absence of tPA (Example 2) ([5]; 3 μM inhibitor, no tPA): had no effect on clot formation or fibrinolysis
Kd (DIP-δplasmin; read-out: Affinity of binding to the plasmin kringle domain): ~0.04 µM
G ([6]; 2 nM tPA + 2 μM KD1TM, […] thrombin): 3525.4 dyn/cm^2
MA ([6]; 2 nM tPA + 4 μM KD1TM, […] thrombin): 44.2 mm
Clot strength MA restored, relative to blood without tPA ([6]; 2 nM tPA, 4 μM KD1TM): 98%
G restored, relative to blood without tPA ([6]; 2 nM tPA, 4 μM KD1TM): 96%
Stability of plasmin inhibition on storage (human plasmin): plasmin inhibitory properties are not altered
Concentration until which kallikrein inhibition is not observed (Plasma kallikrein (pKLK)): 25 µM
HUVEC viability (FIG. 4) (HUVEC): not significantly different from the untreated cells

KD1-Y11T/L17R-KT: 60-residue double mutant (Y11T/L17R) of Kunitz domain1 of human TFPI-2 with C-terminal IEK (NAEICLLPLDTGPCRARLLRYYYDRYTQSCRQFLYGGCEGNANNFYTWEACDDACWRIEK)
Max OD405 ([5]; 0.5 μM inhibitor + tPA): 1.54 ± 0.14
OD405 at 60 min ([5]; 0.5 μM inhibitor + tPA): 0.85 ± 0.13
Fibrinolysis midpoint time ([5]; 1.0 μM inhibitor + tPA): 27 ± 1.1 min
Max OD405 ([5]; 1.0 μM inhibitor + tPA): 1.54 ± 0.11
OD405 at 60 min ([5]; 1.0 μM inhibitor + tPA): 0.84 ± 0.12
Fibrinolysis midpoint time ([5]; 2.0 μM inhibitor + tPA): >60 min
Max OD405 ([5]; 2.0 μM inhibitor + tPA): 1.58 ± 0.09
OD405 at 60 min ([5]; 2.0 μM inhibitor + tPA): 1.35 ± 0.06
Fibrinolysis midpoint time ([5]; 3.0 μM inhibitor + tPA): >60 min
Max OD405 ([5]; 3.0 μM inhibitor + tPA): 1.71 ± 0.10
OD405 at 60 min ([5]; 3.0 μM inhibitor + tPA): 1.57 ± 0.08
OD405 at 60 min ([5]; […] inhibitor + tPA): 0.86 ± 0.15
koff, DIP-δplasmin (DIP-δplasmin; 25° C, 1:1 binding model): 7.13±0.9×10^−5 s^−1
kon, DIP-δplasmin (DIP-δplasmin; 25° C, 1:1 binding model): 1.49±0.3×10^3 M^−1s^−1
Kd (DIP-δplasmin; 25° C, 1:1 binding model, read-out: Kd, DIP-δplasmin (kringle domain of plasminogen/plasmin)): ~0.05 µM
Prevention of blood loss (mouse injury models): successful in preventing blood loss
Inhibition profile with FVIIa/sTF (FVIIa/sTF): No inhibition was observed
Kd (tPA): ~0.035 µM
koff, tPA (tPA): 1.05±0.7×10^−4 s^−1
kon, tPA (tPA): 2.91±0.4×10^3 M^−1s^−1
Inhibition profile with FXIa (human FXIa): No inhibition was observed
G [7, 8]: ~3004 dyn/cm^2
LY60 [7, 8]: ~12%
Clot strength MA restored, relative to blood without plasmin ([7]; […] plasmin, inhibitor 5 μM): ~80%
G restored, relative to blood without plasmin ([7]; […] plasmin, inhibitor 5 μM): ~65%
G restored, relative to blood without plasmin ([7]; […] plasmin, inhibitor 7.5 μM): ~70%
MA restored, relative to blood without plasmin ([7]; […] plasmin, inhibitor 7.5 μM): ~83%
Inhibition profile with pKLK (Plasma kallikrein (pKLK); up to 3 μM inhibitor, 1 nM pKLK, triplicate): No inhibition was observed
